Assay results taken from patent US8791132B2, “Compounds and methods for treatment of hypertension” (Medivation Technologies, Inc., priority 2011, dated 2014).
Where two headings read alike, the source gives them in different places. One block for each compound: values may come before it.

Columns and labels:
[1] = biological target: T1, human recombinant adrenergic α2B receptor (Homo sapiens, UniProt P18089); assay: Radioligand binding, adrenergic α2B ([3H]Rauwolscine)
T1 construct: expressed in transfected cells; host or cells: CHO-K1
T1 sequence (P18089 1-450): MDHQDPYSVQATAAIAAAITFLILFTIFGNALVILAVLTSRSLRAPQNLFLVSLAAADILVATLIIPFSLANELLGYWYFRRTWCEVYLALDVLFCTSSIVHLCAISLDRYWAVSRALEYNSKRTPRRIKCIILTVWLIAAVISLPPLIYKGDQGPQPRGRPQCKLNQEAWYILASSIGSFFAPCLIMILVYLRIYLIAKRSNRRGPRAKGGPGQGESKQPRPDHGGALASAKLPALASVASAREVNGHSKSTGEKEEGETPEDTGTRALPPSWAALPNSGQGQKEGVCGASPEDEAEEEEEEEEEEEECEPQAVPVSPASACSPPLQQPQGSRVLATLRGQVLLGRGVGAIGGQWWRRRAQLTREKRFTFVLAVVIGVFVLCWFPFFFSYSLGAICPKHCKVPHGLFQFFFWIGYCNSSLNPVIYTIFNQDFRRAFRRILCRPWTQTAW
Outline: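 Readout: percent inhibition of specific [3H]Rauwolscine binding, measured by filtration and counting. Conditions: CHO-K1 cell-expressed receptor, 2.5 nM radioligand, 60 min, 25° C, Tris-HCl pH 7.4 buffer with MgCl2, EDTA, BSA. Non-specific binding: 10 μM Prazosin.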

[2] = biological target: T2, human recombinant adrenergic α1D receptor (Homo sapiens, UniProt P25100); assay: Radioligand binding, adrenergic α1D ([3H]Prazosin)
T2 construct: expressed in transfected cells; host or cells: HEK-293
T2 sequence (P25100 1-572): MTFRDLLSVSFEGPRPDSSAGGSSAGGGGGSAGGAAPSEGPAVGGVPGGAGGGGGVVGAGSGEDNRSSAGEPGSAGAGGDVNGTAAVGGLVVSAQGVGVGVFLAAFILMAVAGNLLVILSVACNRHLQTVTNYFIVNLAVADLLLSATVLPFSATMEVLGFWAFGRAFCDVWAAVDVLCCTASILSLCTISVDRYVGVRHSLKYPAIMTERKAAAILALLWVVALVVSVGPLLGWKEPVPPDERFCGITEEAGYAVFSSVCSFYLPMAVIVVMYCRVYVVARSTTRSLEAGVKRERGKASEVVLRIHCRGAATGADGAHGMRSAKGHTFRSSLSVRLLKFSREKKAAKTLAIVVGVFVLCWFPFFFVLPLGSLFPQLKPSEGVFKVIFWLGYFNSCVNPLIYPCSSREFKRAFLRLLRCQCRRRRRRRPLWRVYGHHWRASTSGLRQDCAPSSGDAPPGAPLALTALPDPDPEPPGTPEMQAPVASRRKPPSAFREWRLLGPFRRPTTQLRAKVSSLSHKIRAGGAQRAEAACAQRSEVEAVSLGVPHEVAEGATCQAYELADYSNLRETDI
Protocol: Compounds were incubated with 0.6 nM [3H]Prazosin for 60 min at 25° C. Non-specific binding was estimated in the presence of 10 μM phentolamine. Receptor proteins were filtered and washed, the filters were then counted to determine [3H]Prazosin specifically bound. […] Biochemical assay results are presented as the percent inhibition of specific binding in Table B1.

[3] = biological target: T3, rat adrenergic α1B receptor (Rattus norvegicus, UniProt P15823); assay: Radioligand binding, adrenergic α1B ([3H]Prazosin); conditions: for Percentage inhibition of ligand binding, Adrenergic α1B / Percentage inhibition of ligand binding, Adrenergic α1B (0.1 μM): 0.1 µM
T3 construct: rat adrenergic α1B receptor obtained from Wistar Rat liver; from tissue; host or cells: Wistar rat liver
T3 sequence (P15823 1-515): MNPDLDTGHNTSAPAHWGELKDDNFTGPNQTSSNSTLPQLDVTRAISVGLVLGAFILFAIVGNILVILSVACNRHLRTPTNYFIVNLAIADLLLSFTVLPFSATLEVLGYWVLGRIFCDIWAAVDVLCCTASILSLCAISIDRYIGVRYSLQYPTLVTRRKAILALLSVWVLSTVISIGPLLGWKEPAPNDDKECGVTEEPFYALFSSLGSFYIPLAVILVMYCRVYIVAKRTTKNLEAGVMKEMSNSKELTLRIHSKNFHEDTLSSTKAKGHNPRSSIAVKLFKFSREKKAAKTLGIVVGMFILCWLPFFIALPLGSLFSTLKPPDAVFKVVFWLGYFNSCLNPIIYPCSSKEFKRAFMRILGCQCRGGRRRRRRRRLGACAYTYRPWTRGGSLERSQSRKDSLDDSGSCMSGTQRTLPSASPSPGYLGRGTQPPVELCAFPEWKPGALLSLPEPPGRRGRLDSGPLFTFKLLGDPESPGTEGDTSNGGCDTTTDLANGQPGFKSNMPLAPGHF
Outline: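 Rat α1B receptor from Wistar rat liver was incubated with 0.25 nM [3H]prazosin for 60 min at 25 °C in 50 mM Tris-HCl, pH 7.4, 0.5 mM EDTA. Non-specific binding was defined with 10 μM phentolamine. Bound radioligand was measured by filtration and counting, reported as percent inhibition of specific binding.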

[4] = biological target: T4, human recombinant adrenergic α2A receptor (Homo sapiens, UniProt P08913); assay: Radioligand binding, adrenergic α2A ([3H]MK-912)
T4 construct: expressed in transfected cells; host or cells: insect Sf9 cells
T4 sequence (P08913 1-465): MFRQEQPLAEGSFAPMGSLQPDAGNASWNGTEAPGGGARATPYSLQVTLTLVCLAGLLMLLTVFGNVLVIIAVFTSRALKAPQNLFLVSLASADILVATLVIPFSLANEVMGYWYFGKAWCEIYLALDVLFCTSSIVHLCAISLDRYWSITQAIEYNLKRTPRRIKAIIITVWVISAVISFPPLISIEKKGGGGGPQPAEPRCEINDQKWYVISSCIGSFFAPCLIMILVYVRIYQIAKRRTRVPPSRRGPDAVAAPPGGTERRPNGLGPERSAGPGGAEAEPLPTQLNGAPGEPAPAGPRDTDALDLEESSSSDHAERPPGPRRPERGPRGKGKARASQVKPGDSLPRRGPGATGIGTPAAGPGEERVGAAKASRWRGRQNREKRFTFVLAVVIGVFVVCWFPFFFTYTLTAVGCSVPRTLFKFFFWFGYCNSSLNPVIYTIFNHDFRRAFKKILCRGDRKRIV
Outline: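 Receptor expressed in Sf9 cells, in 50 mM Tris-HCl pH 7.4, 12.5 mM MgCl2, 2 mM EDTA; compounds incubated with 1 nM [3H]MK-912 for 60 min at 25 °C.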

[5] = compound at 0.1 μM, [3H]Prazosin, repeat assays, each datapoint shown, read-out: Percentage inhibition of ligand binding, Adrenergic α1D
[6] = compound at 0.03 μM, [3H]Rauwolscine, repeat assays, each datapoint shown, read-out: Percentage inhibition of ligand binding, Adrenergic α2B
[7] = compound at 0.1 μM, [3H]Rauwolscine, repeat assays, each datapoint shown, read-out: Percentage inhibition of ligand binding, Adrenergic α2B
[8] = compound at 0.1 μM, [3H]Prazosin, repeat assays, each datapoint shown
[9] = compound at 0.1 μM, [3H]Prazosin, repeat assays, each datapoint shown, read-out: Percentage inhibition of ligand binding, Adrenergic α1B
[10] = read-out: Percentage inhibition of ligand binding, Adrenergic α2B (0.03 μM), compound at 0.03 μM, [3H]Rauwolscine, repeat datapoints each shown
[11] = read-out: Percentage inhibition of ligand binding, Adrenergic α2B (0.1 μM), compound at 0.1 μM, [3H]Rauwolscine, repeat datapoints each shown
[12] = compound at 0.1 μM, [3H]Prazosin, repeat datapoints each shown
[13] = read-out: Percentage inhibition of ligand binding, Adrenergic α1B (0.1 μM), compound at 0.1 μM, [3H]Prazosin, repeat datapoints each shown
[14] = read-out: Percentage inhibition of ligand binding, Adrenergic α2A (0.1 μM), compound at 0.1 μM, [3H]MK-912, repeat datapoints each shown
[15] = compound at 0.03 μM, [3H]Rauwolscine, repeat datapoints each shown
[16] = compound at 0.1 μM, [3H]MK-912, repeat datapoints each shown, 0.1 µM

SMILES: C/C(=C\n1c2c(c3cc(C)cnc31)CN(C)CC2)c1ccc(C)nc1 [compound 78]
inhibition at 0.03 µM [1, 6]: 67% | inhibition at 0.1 µM [1, 7]: 87% | Percentage inhibition of ligand binding, Adrenergic α1B [3, 8]: 12% | inhibition at 0.1 µM [3, 9]: 11% | inhibition at 0.1 µM [2, 5]: 22%

SMILES: Cc1ccc2c(c1)c1c(n2CC(C)(O)c2ccncc2)CCN(C)C1 (centres unmarked) [compound 2]
inhibition at 0.03 µM [1, 6]: 75% | inhibition at 0.1 µM [1, 7]: 95% | Percentage inhibition of ligand binding, Adrenergic α1B [3, 8]: 28% | inhibition at 0.1 µM [3, 9]: 27% | inhibition at 0.1 µM [2, 5]: 13%

SMILES: Cc1ccc2c(c1)c1c(n2CC(O)c2ccc(F)cc2)CCN(C)C1 (centres unmarked) [compound 30]
inhibition at 0.1 µM [1, 7]: 91% | inhibition at 0.1 µM [2, 5]: 49%

SMILES: Cc1cnc2c(c1)c1c(n2CCc2ccc(C)nc2)CCN2CCCC12 (centres unmarked) [compound 74, 10-methyl-7-(2-(6-methylpyridin-3-yl)ethyl)-2,3,5,6,7,11c-hexahydro-1H-pyrido[3′,2′:4,5]pyrrolo[2,3-g]indolizine]
inhibition at 0.1 µM [1, 7]: 104% | Percentage inhibition of ligand binding, Adrenergic α2A ([4]; compound at 0.1 μM, [3H]MK-912, repeat assays, each datapoint shown, 0.1 µM): 6% | inhibition at 0.1 µM [2, 5]: 57%

SMILES: CN1CCc2c(c3cc(F)ccc3n2CCc2ccc(F)cc2)C1 [compound 219]
inhibition at 0.03 µM ([4]; read-out: Percentage inhibition of ligand binding, Adrenergic α2A (0.03 μM), compound at 0.03 μM, [3H]MK-912, repeat datapoints each shown): 69% | inhibition at 0.03 µM ([2]; read-out: Percentage inhibition of ligand binding, Adrenergic α1D (0.03 μM), compound at 0.03 μM, [3H]Prazosin, repeat datapoints each shown): 3%

SMILES: Cc1cnc2c(c1)c1c(n2CCc2ccc(F)cc2)CCN2CCCC12 (centres unmarked) [compound 336]
inhibition at 0.03 µM ([1]; 0.03 μM compound, read-out: Percentage inhibition of ligand binding, Adrenergic α2B): 104% | inhibition at 0.1 µM ([4]; 0.1 μM compound, read-out: Percentage inhibition of ligand binding, Adrenergic α2A): 66% | inhibition at 0.1 µM ([3]; 0.1 μM compound, read-out: Percentage inhibition of ligand binding, Adrenergic α1B): 98%

Other lines, results leading:

inhibition at 0.1 µM ([1]; 0.1 μM compound, read-out: Percentage inhibition of ligand binding, Adrenergic α2B): 104% | Percentage inhibition of ligand binding, Adrenergic α1D ([2]; 0.1 μM compound, 0.1 µM): 88%
SMILES: Cc1ccc2c(c1)c1c(n2CC(C)c2ccc(F)cc2)CCN(C)C1 (single isomer, unassigned) [288a]

inhibition at 0.1 µM [2, 5]: 23%
SMILES: CCCCC(O)(Cn1c2c(c3cc(Cl)ccc31)CN(C)CC2)c1ccc(F)cc1 (centres unmarked) [33a]

inhibition at 0.03 µM [1, 10]: 39% | inhibition at 0.1 µM [1, 11]: 35% | Percentage inhibition of ligand binding, Adrenergic α1B (0.1 μM) [3, 12]: 14% | inhibition at 0.1 µM [3, 13]: 7% | inhibition at 0.1 µM ([2]; read-out: Percentage inhibition of ligand binding, Adrenergic α1D (0.1 μM), compound at 0.1 μM, [3H]Prazosin, repeat datapoints each shown): 15%
SMILES: CCC(O)(Cn1c2c(c3cc(Cl)ccc31)CN(C)CC2)c1ccc(F)cc1 (centres unmarked) [II-160]

Ki ([1]; read-out: Ki α2B): 0.43 nM | inhibition at 0.03 µM [1, 10]: 105% | inhibition at 0.1 µM [1, 11]: 106% | inhibition at 0.1 µM [4, 14]: 37% | Percentage inhibition of ligand binding, Adrenergic α1B (0.1 μM) [3, 12]: 74% | inhibition at 0.03 µM ([3]; read-out: Percentage inhibition of ligand binding, Adrenergic α1B (0.03 μM), compound at 0.03 μM, [3H]Prazosin, repeat datapoints each shown): 35% | inhibition at 0.1 µM [3, 13]: 71%
SMILES: Cc1cnc2c(c1)c1c(n2CC(C)(O)c2ccc(C)nc2)CCN2CCCC12 (single isomer, unassigned) [148b]

inhibition at 0.03 µM [1, 10]: 40% | inhibition at 0.1 µM [4, 14]: 1% | inhibition at 0.1 µM [3, 13]: 57%
SMILES: Cc1ccc2c(c1)c1c(n2CC(O)c2ccc(C(N)=O)nc2)CCN(C)C1 (centres unmarked) [144a, 5-[2-(2,8-dimethyl-1,2,3,4-tetrahydro-pyrido[4,3-b]indol-5-yl)-1-hydroxy-ethyl]-pyridine-2-carboxylic acid amide]

Percentage inhibition of ligand binding, Adrenergic α2B (0.03 μM) [1, 15]: 62% | Percentage inhibition of ligand binding, Adrenergic α2A (0.1 μM) [4, 16]: 16% | inhibition at 0.1 µM [3, 13]: 41%
SMILES: Cc1cc2c3c(n(CC(C)(O)c4cccnc4)c2cc1Cl)CCN(C)C3 (single isomer, unassigned) [II-123a, 1-(7-chloro-2,8-dimethyl-3,4-dihydro-1H-pyrido[4,3-b]indol-5(2H)-yl)-2-(pyridin-3-yl)propan-2-ol]

Percentage inhibition of ligand binding, Adrenergic α2B (0.03 μM) [1, 15]: 40% | Percentage inhibition of ligand binding, Adrenergic α2A (0.1 μM) [4, 16]: 8% | Percentage inhibition of ligand binding, Adrenergic α1B (0.1 μM) [3, 12]: 33%
SMILES: Cc1ccc2c(c1)c1c(n2CC(O)c2cc[nH]c(=O)c2)CCN2CCCC12 (single isomer, unassigned) [II-132a, 4-(2-(2,3,5,6-tetrahydro-10-methyl-1H-indolizino[7,8-b]indol-7(11cH)-yl)-1-hydroxyethyl)pyridin-2(1H)-one]

inhibition at 0.03 µM [1, 10]: 7% | inhibition at 0.1 µM [4, 14]: 2% | inhibition at 0.1 µM [3, 13]: 2%
SMILES: Cc1ccc2c(c1CO)c1c(n2CC(C)(O)c2cccnc2)CCN(C)C1 (centres unmarked) [II-153]

Percentage inhibition of ligand binding, Adrenergic α2B (0.03 μM) [1, 15]: 44% | Percentage inhibition of ligand binding, Adrenergic α2A (0.1 μM) [4, 16]: 7% | Percentage inhibition of ligand binding, Adrenergic α1B (0.1 μM) [3, 12]: 41%
SMILES: Cc1cnc2c(c1)c1c(n2CC(C)(O)c2ccc(F)cc2)CCN2CCCC12 (single isomer, unassigned) [II-149d, 2-(4-fluoro-phenyl)-1-(9-methyl-1,2,3,4,5,10c-hexahydro-3a,6,7-triazacyclopenta[c]fluoren-6-yl)-propan-2-ol]
